Results as given in US12145913B2, “Inhibition of Olig2 activity” (Curtana Pharmaceuticals, Inc., priority 2016, dated 2024).

system: GBM8 human glioblastoma cells; test: GBM8 viability assay (Cell Titer Glo); type: cell-based; conditions: 72 h, Table 1, 3 days incubation, luminescence
Description: Cell culture medium was prepared from a NSA proliferation kit (Neurocult) and NeuroCult supplements (Stemcell Tech Cat. #05751) and treated with 20 μL of 10 μg/mL rh EGF, 10 μL of 10 μg/mL rh bFGF and 10 μL of 0.2% Heparin. In this medium, human glioblastoma cells were cultured in ultra-low attachment tissue culture flasks until 1×10^6 cells ml was achieved (GBM4 and GBM8 are distinct neurosphere cell cultures derived from these human patient tissues). GBM4 and GBM8 cells were dissociated and 10 mL of media containing 4000 human glioblastoma cells per 90 μL were transferred to an ultra-low binding 96-well plate and incubated at 37° C. overnight. On the following day, 10 μL of a 1% DMSO solution of test compound in assay medium was added to wells containing the cell suspension and the mixture incubated at 37° C. for 3 days. At this time, the plate was removed from the incubator and allowed to reach room temperature. After about 30 minutes, 50 μL of Cell Titer Glo solution was added to each well and the plate shaken for 1 minute at low speed. After 10 minutes luminescence was recorded using a Tecan Safire2 reader.
Reduction in luminescence compared to DMSO only control wells was used to determine the percentage inhibition of cell growth. IC50s were calculated using the % inhibition of luminescence for serial dilutions of compounds fitted to a 4-parameter fit within the Prism (San Diego) curve fitting program. Tables 1 (compounds 3-188) and 2 (compounds 190-212) show the GBM4 IC50 and GBM8 IC50 for compounds described herein.

Row | Structure (SMILES) | IC50 [nM]
1 | Cc1cc(NCCCN)nc(NC(=O)Nc2ccc3ncccc3c2)n1 [Compound 108, 1-(4-((3-aminopropyl)amino)-6-methylpyrimidin-2-yl)-3-(quinolin-6-yl)urea] | 500 to 5000
2 | Cc1cc(NCCO)nc(NC(=O)Nc2ccc3cnccc3c2)n1 [Compound 60, 1-(4-((2-hydroxyethyl)amino)-6-methylpyrimidin-2-yl)-3-(isoquinolin-6-yl)urea] | < 500
3 | Cc1cc(NCCCN(C)C)nc(NC(=O)Nc2ccc3ccncc3c2)n1 [Compound 114, 1-(4-((3-(dimethylamino)propyl)amino)-6-methylpyrimidin-2-yl)-3-(isoquinolin-7-yl)urea] | < 500
4 | CNC(=O)CNc1cc(C)nc(NC(=O)Nc2ccc3cnccc3c2)n1 [Compound 58] | < 500
5 | Cc1cc(NO)nc(NC(=O)Nc2ccc3cnccc3c2)n1 [Compound 62, 1-(4-(hydroxyamino)-6-methylpyrimidin-2-yl)-3-(isoquinolin-6-yl)urea] | < 500
6 | CC(=O)NCCNc1cc(C)nc(NC(=O)Nc2ccc3cnccc3c2)n1 [Compound 67, N-(2-((2-(3-(isoquinolin-6-yl)ureido)-6-methylpyrimidin-4-yl)amino)ethyl)acetamide] | < 500
7 | CC(=O)NCCNc1cc(C)nc(NC(=O)Nc2ccc3ccncc3c2)n1 [Compound 119, N-(2-((2-(3-(isoquinolin-7-yl)ureido)-6-methylpyrimidin-4-yl)amino)ethyl)acetamide] | 500 to 5000
8 | Cc1cc(NCCN)nc(NC(=O)Nc2cc3ccccc3cn2)n1 [Compound 90, 1-(4-((2-aminoethyl)amino)-6-methylpyrimidin-2-yl)-3-(isoquinolin-3-yl)urea] | 500 to 5000
9 | COC(=O)CCNc1cc(C)nc(NC(=O)Nc2ccc3ccccc3c2)n1 [Compound 25, methyl 3-((6-methyl-2-(3-(naphthalen-2-yl)ureido)pyrimidin-4-yl)amino)propanoate] | < 500
10 | Cc1cc(NCCc2ncc[nH]2)nc(NC(=O)Nc2ccc3ccccc3c2)n1 [Compound 22, 1-(4-((2-(1H-imidazol-2-yl)ethyl)amino)-6-methylpyrimidin-2-yl)-3-(naphthalen-2-yl)urea] | < 500
11 | Cc1cc(NCCOCCN(C)C)nc(NC(=O)Nc2ccc3ccccc3c2)n1 [Compound 28, 1-(4-((2-(2-(dimethylamino)ethoxy)ethyl)amino)-6-methylpyrimidin-2-yl)-3-(naphthalen-2-yl)urea] | < 500
12 | Cc1cc(NCCN)nc(NC(=O)Nc2ccc3occc3c2)n1 [Compound 82, 1-(4-((2-aminoethyl)amino)-6-methylpyrimidin-2-yl)-3-(benzofuran-5-yl)urea] | < 500
13 | Cc1cc(NCCCN(C)C)nc(NC(=O)Nc2cc3ccccc3cn2)n1 [Compound 89, 1-(4-((3-(dimethylamino)propyl)amino)-6-methylpyrimidin-2-yl)-3-(isoquinolin-3-yl)urea] | 5000 to 30000
14 | CNC(=O)CCNc1cc(C)nc(NC(=O)Nc2ccc3cnccc3c2)n1 [Compound 77, 3-((2-(3-(isoquinolin-6-yl)ureido)-6-methylpyrimidin-4-yl)amino)-N-methylpropanamide] | < 500
15 | Cc1cc(NCC2CCCNC2)nc(NC(=O)Nc2ccc3ccccc3c2)n1 (stereo not shown) [Compound 32, 1-(4-methyl-6-((piperidin-3-ylmethyl)amino)pyrimidin-2-yl)-3-(naphthalen-2-yl)urea] | < 500
16 | Cc1cc(NCC(=O)N(C)C)nc(NC(=O)Nc2ccc3cnccc3c2)n1 [Compound 59] | 500 to 5000
17 | CNCCCNc1cc(C)nc(NC(=O)Nc2ccc3cnccc3c2)n1 [Compound 64, 1-(isoquinolin-6-yl)-3-(4-methyl-6-((3-(methylamino)propyl)amino)pyrimidin-2-yl)urea] | < 500
18 | CNCCCN(C)c1cc(C)nc(NC(=O)Nc2ccc3ccccc3c2)n1 [Compound 9] | 500 to 5000
19 | CC(=O)NCCNc1cc(C)nc(NC(=O)Nc2ccc3ncccc3c2)n1 [Compound 110, N-(2-((6-methyl-2-(3-(quinolin-6-yl)ureido)pyrimidin-4-yl)amino)ethyl)acetamide] | 500 to 5000
20 | CONc1cc(C)nc(NC(=O)Nc2ccc3ccccc3c2)n1 [Compound 44, 1-(4-(methoxyamino)-6-methylpyrimidin-2-yl)-3-(naphthalen-2-yl)urea] | < 500
21 | Cc1cc(NCCCNS(C)(=O)=O)nc(NC(=O)Nc2ccc3cnccc3c2)n1 [Compound 71, N-(3-((2-(3-(isoquinolin-6-yl)ureido)-6-methylpyrimidin-4-yl)amino)propyl)methanesulfonamide] | < 500
22 | CC(=O)NCCCNc1cc(C)nc(NC(=O)Nc2ccc3occc3c2)n1 [Compound 85, N-(3-((2-(3-(benzofuran-5-yl)ureido)-6-methylpyrimidin-4-yl)amino)propyl)acetamide] | < 500

Further lines, results first:

Row | IC50 [nM] | Structure (SMILES)
23 | < 500 | Cc1cc(NCCO)nc(NC(=O)Nc2ccc(OC(F)(F)F)cc2)n1 [Compound 145, 1-(4-((2-hydroxyethyl)amino)-6-methylpyrimidin-2-yl)-3-(4-(trifluoromethoxy)phenyl)urea]
24 | 500 to 5000 | CN(C)CCCNc1nc(NC(=O)Nc2ccc(Cl)c(Cl)c2)ncc1F [Compound 168, 1-(3,4-dichlorophenyl)-3-(4-((3-(dimethylamino)propyl)amino)-5-fluoropyrimidin-2-yl)urea]
25 | < 500 | Cc1cc(NCCCN(C)C)nc(NC(=O)Nc2ccc(-c3ccccc3)cc2)n1 [Compound 125, 1-([1,1′-biphenyl]-4-yl)-3-(4-((3-(dimethylamino)propyl)amino)-6-methylpyrimidin-2-yl)urea]
26 | 500 to 5000 | CN(C)CCCNc1ccnc(NC(=O)Nc2ccc(Cl)c(Cl)c2)n1 [Compound 157, 1-(3,4-dichlorophenyl)-3-(4-((3-(dimethylamino)propyl)amino)pyrimidin-2-yl)urea]
27 | 500 to 5000 | CNCCCNc1cc(C(C)C)nc(NC(=O)Nc2ccc(Cl)c(Cl)c2)n1 [Compound 184, 1-(3,4-dichlorophenyl)-3-(4-isopropyl-6-((3-(methyl-amino)propyl)amino)pyrimidin-2-yl)urea]
28 | < 500 | O=C(Nc1ccc(OC(F)(F)F)cc1)Nc1nccc(Cl)n1 [Compound 162, 1-(4-Chloropyrimidin-2-yl)-3-(4-(trifluoromethoxy)phenyl)urea]
29 | < 500 | Cc1cc(NCCCN(C)C)nc(NC(=O)Nc2ccc(OC(F)(F)F)c(C)c2)n1 [Compound 153, 1-(4-((3-(dimethylamino)propyl)amino)-6-methylpyrimidin-2-yl)-3-(3-methyl-4-(trifluoromethoxy)phenyl)urea]
30 | < 500 | CN(C)CCCNc1ccnc(NC(=O)Nc2ccc3ccccc3c2)n1 [Compound 160, 1-(4-((3-(dimethylamino)propyl)amino)pyrimidin-2-yl)-3-(naphthalen-2-yl)urea]
31 | 500 to 5000 | CC(C)c1cc(NCCCN(C)C)nc(NC(=O)Nc2ccc3ccccc3c2)n1 [Compound 188, 1-(4-((3-(dimethylamino)propyl)amino)-6-isopropylpyrimidin-2-yl)-3-(naphthalen-2-yl)urea]
32 | < 500 | Cc1cc(NCCCN(C)C)nc(NC(=O)Nc2ccc(Oc3ccccc3)cc2)n1 [Compound 133, 1-(4-((3-(dimethylamino)propyl)amino)-6-methylpyrimidin-2-yl)-3-(4-phenoxyphenyl)urea]

same assay, conditions: 72 h, Table 2, 3 days incubation, luminescence

Row | IC50 [nM] | Structure (SMILES)
33 | 500 to 5000 | O=C(Nc1ccc(OC(F)(F)F)cc1)Nc1nc(NO)cc(C2CC2)n1 [Compound 212, 1-(4-cyclopropyl-6-(hydroxyamino)pyrimidin-2-yl)-3-(4-(trifluoromethoxy)phenyl)urea]
34 | 5000 to 30000 | CNCCCNc1cc(C2CC2)nc(NC(=O)Nc2ccc(Cl)c(Cl)c2)n1 [Compound 206, 1-(4-cyclopropyl-6-((3-(methylamino)propyl)amino)pyrimidin-2-yl)-3-(3,4-dichlorophenyl)urea]
35 | 500 to 5000 | CNCCCNc1cc(C(C)C)nc(NC(=O)Nc2ccc(OC(F)(F)F)cc2)n1 [Compound 198, 1-(4-isopropyl-6-((3-(methylamino)propyl)amino)pyrimidin-2-yl)-3-(4-(trifluoromethoxy)phenyl)urea]
36 | 500 to 5000 | CNCCCNc1cc(C(C)C)nc(NC(=O)Nc2ccc3ccccc3c2)n1 [Compound 192, 1-(4-isopropyl-6-((3-(methylamino)propyl)amino)pyrimidin-2-yl)-3-(naphthalen-2-yl)urea]
37 | 500 to 5000 | CC(C)c1cc(NO)nc(NC(=O)Nc2ccc(OC(F)(F)F)cc2)n1 [Compound 199, 1-(4-(hydroxyamino)-6-isopropylpyrimidin-2-yl)-3-(4-(trifluoromethoxy)phenyl)urea]
38 | 500 to 5000 | O=C(Nc1ccc(Cl)c(Cl)c1)Nc1nc(NO)cc(C2CC2)n1 [Compound 207, 1-(4-cyclopropyl-6-(hydroxyamino)pyrimidin-2-yl)-3-(3,4-dichlorophenyl)urea]
39 | 500 to 5000 | CN(C)CCCNc1cc(C2CC2)nc(NC(=O)Nc2ccc(Cl)c(Cl)c2)n1 [Compound 204, 1-(4-cyclopropyl-6-((3-(dimethylamino)propyl)amino)-pyrimidin-2-yl)-3-(3,4-dichlorophenyl)urea]
40 | 5000 to 30000 | CC(C)c1cc(N)nc(NC(=O)Nc2ccc3ccccc3c2)n1 [Compound 190, 1-(4-amino-6-isopropylpyrimidin-2-yl)-3-(naphthalen-2-yl)urea]
